Measurements as given in patent EP0441226A1, “(cyanomethyl)pyridines useful as PAF antagonists” (J. URIACH & CIA. S.A., priority 1990, dated 1991).
Counter-ions that a name gives are not always drawn. Like-named read-outs stand apart in the source and are kept apart here.

System: hypotension induced by PAF
Assay: Inhibition of the hypotensive effect induced by PAF in normotense rats
Assay type: in vivo, Sprage Dawley rats
Conditions: Rattus norvegicus, iv
[1] = i.v. (femoral vein) 3 min before PAF 0.5 mcg/Kg i.v., anesthetized male rats, mean arterial pressure, read-out: ID50 (the source's name)

Experimental: Inhibition of the hypotensive effect induced by PAF in normotense rats.
Male Sprage Dawley rats, of 180-220 g of weight, anesthetized with sodium pentobarbital (50 mg/Kg, i.p. 1 mU100 g) have been used. In order to measure the average arterial pressure, a polyethylene catheter is introduced into the carotid artery. The arterial pressure is recorded with the help of a transducer connected with a R611 Beckman polygraph. The tested compounds are administered through the femoral vein 3 min. before the injection of PAF (0.5 mcg/Kg, i.v.).

Row | Structure (SMILES) | ED50 [1] | ED50 (read-out: ID50)
1 | Cl.Cl.N#CC(c1cccnc1)N1CCN(C(=O)c2ccc3ccccc3c2)CC1 (stereo not shown) [Compound 1, 1-(2-Naphthoyl)-4-(3-pyridylcyanomethyl)piperazine, dihydrochloride] | 5 mg/kg | –
2 | N#CC(c1cccnc1)N1CCN(C(=O)Cc2cccc3ccccc23)CC1 (stereo not shown) [Compound 2, 1-(1-Naphthylacetyl)-4-(3-pyridylcyanomethyl)piperazine] | – | 1.3 mg/kg
3 | N#CC(c1cccnc1)N1CCN(C(=O)Cc2ccccc2)CC1 (stereo not shown) [Compound 5, 1-(Phenylacetyl)-4-(3-pyridylcyanomethyl)piperazine] | – | 1.5 mg/kg
4 | N#CC(c1cccnc1)N1CCN(C(=O)CCc2ccccc2)CC1 (stereo not shown) [Compound 6, 1-(3-Phenylpropanoyl)-4-(3-pyridylcyanomethyl)piperazine, dichlorhydrate] | 1.2 mg/kg | –
5 | N#CC(c1cccnc1)N1CCN(C(=O)CCCc2ccccc2)CC1 (stereo not shown) [Compound 7, 1-(4-Phenylbutanoyl)-4-(3-pyridylcyanomethyl)piperazine] | 5 mg/kg | –
6 | CC(C(=O)N1CCN(C(C#N)c2cccnc2)CC1)(c1ccccc1)c1ccccc1.Cl.Cl (stereo not shown) [Compound 8, 1-(2,2-Diphenylpropanoyl)-4-(3-pyridylcyanomethyl)piperazine, dihydrochloride] | 0.14 mg/kg | –
7 | Cl.Cl.N#CC(c1cccnc1)N1CCN(C(=O)C(c2ccccc2)c2ccccc2)CC1 (stereo not shown) [Compound 9, 1-(Diphenylacetyl)-4-(3-pyridylcyanomethyl)piperazine, dihydrochloride] | 0.11 mg/kg | –
8 | N#CC(c1cccnc1)N1CCN(C(=O)C(Cc2ccccc2)c2ccccc2)CC1 (stereo not shown) [Compound 10, 1-(2,3-Diphenylpropanoyl)-4-(3-pyridylcyanomethyl)piperazine] | 0.12 mg/kg | –
9 | N#CC(c1cccnc1)N1CCN(C(=O)C(CCc2ccccc2)c2ccccc2)CC1 (stereo not shown) [Compound 11, 1-(2,4-Diphenylbutanoyl)-4-(3-pyridylcyanomethyl)piperazine] | 0.73 mg/kg | –
10 | N#CC(c1cccnc1)N1CCN(C(=O)CC(c2ccccc2)c2ccccc2)CC1 (stereo not shown) [Compound 12, 1-(3,3-Diphenylpropanoyl)-4-(3-pyridylcyanomethyl)piperazine] | 0.016 mg/kg | –
11 | N#CC(c1cccnc1)N1CCN(C(=O)C(Cc2ccccc2)Cc2ccccc2)CC1 (stereo not shown) [Compound 13, 1-(2-Phenylmethyl-3-phenylpropanoyl)-4-(3-pyridylcyanomethyl) piperazine, dichlorhydrate] | 0.68 mg/kg | –
12 | CC(C(=O)N1CCN(C(C#N)c2cccnc2)CC1)c1ccccc1.Cl.Cl (stereo not shown) [Compound 14, 1-(2-Phenylpropanoyl)-4-(3-pyridylcyanomethyl)piperazine, dihydrochloride] | 0.26 mg/kg | –
13 | N#CC(c1cccnc1)N1CCN(C(=O)C=Cc2ccccc2)CC1 (stereo not shown) [Compound 15, 1-(3-Phenylpropenoyl)-4-(3-pyridylcyanomethyl)piperazine, dichlorhydrate] | 0.24 mg/kg | –
14 | N#CC(c1cccnc1)N1CCN(C(=O)C(=Cc2ccccc2)c2ccccc2)CC1 (stereo not shown) [Compound 16, 1-(2,3-Diphenylpropenoyl)-4(3-pyridylcyanomethyl)piperazine] | 0.17 mg/kg | –
15 | N#CC(c1cccnc1)N1CCN(C(=O)C=C(c2ccccc2)c2ccccc2)CC1 (stereo not shown) [Compound 17, 1-(3,3-Diphenylpropenoyl)-4-(3-pyridylcyanomethyl)piperazine] | 0.049 mg/kg | –
16 | CCCCCCCC(=O)N1CCN(C(C#N)c2cccnc2)CC1.Cl (stereo not shown) [Compound 19, 1-(Octanoyl)-4-(3-pyridylcyanomethyl)piperazine hydrochloride] | 1.2 mg/kg | –
17 | COc1cc(C(=O)N2CCN(C(C#N)c3cccnc3)CC2)cc(OC)c1OC.Cl.Cl (stereo not shown) [Compound 22, 1-(3,4,5-Trimethoxybenzoyl)-4-(3-pyridylcyanomethyl)piperazine, dihydrochloride] | 4.3 mg/kg | –
18 | COc1ccc(C(CC(=O)N2CCN(C(C#N)c3cccnc3)CC2)c2ccc(OC)cc2)cc1 (stereo not shown) [Compound 25, 1-(3,3-bis(4-methoxyphenyl)propanoyl)-4-(3-pyridylcyanomethyl) piperazine] | 0.19 mg/kg | –
19 | COc1ccc(C(=CC(=O)N2CCN(C(C#N)c3cccnc3)CC2)c2ccc(OC)cc2)cc1.Cl.Cl (stereo not shown) [Compound 26, 1-(3,3-bis(4-methoxyphenyl)propenoyl)-4-(3-pyridylcyanomethyl)piperazine, dihydrochloride] | 0.17 mg/kg | –

Row | Structure (SMILES) | ED50 [1] | ED50 (read-out: ID50)
20 | Cl.Cl.N#CC(c1cccnc1)N1CCN(C(=O)C(O)c2ccccc2)CC1 (stereo not shown) [Compound 27, 1-(2-phenyl-2-hydroxyacetyl)-4-(3-pyridylcyanomethyl)piperazine, dihydrochloride] | 1.1 mg/kg | –
21 | N#CC(c1cccnc1)N1CCN(C(=O)CC(O)(c2ccccc2)c2ccccc2)CC1 (stereo not shown) [Compound 28, 1-(3,3-Diphenyl-3-hydroxypropanoyl)-4-(3-pyridylcyanomethyl)piperazine] | 0.061 mg/kg | –
22 | N#CC(c1ccncc1)N1CCN(C(=O)CC(O)(c2ccccc2)c2ccccc2)CC1 (stereo not shown) [Compound 29, 1-(3,3-Diphenyl-3-hydroxypropanoyl)-4-(4-pyridylcyanomethyl)piperazine] | 0.061 mg/kg | –
23 | Cl.Cl.N#CC(c1cccnc1)N1CCN(C(=O)OCC(c2ccccc2)c2ccccc2)CC1 (stereo not shown) [Compound 31, 1-((2,2-diphenylethoxy)carbonyl)-4-(3-pyridylcyanomethyl)piperazine, dihydrochloride] | 0.078 mg/kg | –
24 | Cl.Cl.Cl.N#CC(c1cccnc1)N1CCN(C(=O)Cc2c[nH]c3ccccc23)CC1 (stereo not shown) [Compound 33, 1-(3-indolylacetyl)-4-(3-pyridylcyanomethyl)piperazine, trihydrochloride] | – | 3.5 mg/kg
25 | Cl.Cl.Cl.N#CC(c1cccnc1)N1CCN(C(=O)CNc2cccc3ccccc23)CC1 (stereo not shown) [Compound 34, 1-(N-(1-naphthyl)aminoacetyl)-4-(3-pyridylcyanomethyl)piperazine, trihydrochloride] | 3 mg/kg | –
26 | N#CC(c1cccnc1)N1CCN(C(=O)CN(Cc2ccccc2)c2ccccc2)CC1 (stereo not shown) [Compound 38, 1-(N-benzyl-N-phenylaminoacetyl)-4-(3-pyridylcyanomethyl)piperazine] | 0.42 mg/kg | –
27 | N#CC(c1cccnc1)N1CCN(C(=O)CN(CCCc2ccccc2)Cc2ccccc2)CC1 (stereo not shown) [Compound 41, 1-(N-benzyl-N-(3-phenylpropyl)aminoacetyl)-4-(3-pyridylcyanomethyl) piperazine, trihydrochloride] | 1.5 mg/kg | –
28 | N#CC(c1cccnc1)N1CCN(C(=O)CNC(c2ccccc2)c2ccccc2)CC1 (stereo not shown) [Compound 44, 1-(N-(diphenylmethyl)aminoacetyl)-4-(3-pyridylcyanomethyl) piperazine, trihydrochloride] | 0.023 mg/kg | –
29 | CN(CC(=O)N1CCN(C(C#N)c2cccnc2)CC1)C(c1ccccc1)c1ccccc1 (stereo not shown) [Compound 45, 1-(N-diphenylmethyl-N-methylaminoacetyl)-4-(3-pyridylcyanomethyl) piperazine, trihydrochloride] | 0.33 mg/kg | –
30 | N#CC(c1cccnc1)N1CCN(C(=O)CNC(c2ccccc2)c2ccc(Cl)cc2)CC1 (stereo not shown) [Compound 46, 1-(N-(1-(4-chlorophenyl)-1-phenylmethyl)aminoacetyl)-4-(3-pyridylcyanomethyl) piperazine, trihydrochloride] | 0.13 mg/kg | –
31 | N#CC(c1cccnc1)N1CCN(C(=O)CCNC(c2ccccc2)c2ccccc2)CC1 (stereo not shown) [Compound 47, 1-(3-(N-(diphenylmethyl)amino)propanoyl)-4-(3-pyridylcyanomethyl) piperazine] | 0.025 mg/kg | –
32 | N#CC(c1ccncc1)N1CCN(C(=O)CCNC(c2ccccc2)c2ccccc2)CC1 (stereo not shown) [Compound 48, 1-(3-(N-(diphenylmethyl)amino)propanoyl)-4-(4-pyridylcyanomethyl)piperazine] | 0.037 mg/kg | –
33 | Cl.Cl.Cl.N#CC(c1cccnc1)N1CCN(C(=O)CN(Cc2ccccc2)Cc2ccccc2)CC1 (stereo not shown) [Compound 49, 1-(N,N-dibenzylaminoacetyl)-4-(3-pyridylcyanomethyl)piperazine, trihydrochloride] | 1.7 mg/kg | –
34 | Cl.Cl.Cl.N#CC(c1cccnc1)N1CCN(C(=O)CNC(Cc2ccccc2)c2ccccc2)CC1 (stereo not shown) [Compound 52, 1-(N-(1,2-diphenylethyl)aminoacetyl)-4-(3-pyridylcyanomethyl)piperazine, trihydrochloride] | 0.34 mg/kg | –
35 | N#CC(c1ccncc1)N1CCN(C(=O)CNC(=O)C(c2ccccc2)c2ccccc2)CC1 (stereo not shown) [Compound 57, 1-(N-(diphenylacetyl)aminoacetyl)-4-(4-pyridylcyanomethyl)piperazine] | 0.47 mg/kg | –
36 | N#CC(c1cccnc1)N1CCN(CCNC(=O)C(c2ccccc2)c2ccccc2)CC1 (stereo not shown) [Compound 62, 1-(2-(N-(diphenylacetyl)amino)ethyl)-4-(3-pyridylcyanomethyl)piperazine] | 0.29 mg/kg | –
37 | Cl.Cl.N#CC(c1ccncc1)N1CCN(C(=O)CC(c2ccccc2)c2ccccc2)CC1 (stereo not shown) [Compound 67, 1-(3,3-diphenylpropanoyl)-4-(4-pyridylcyanomethyl)piperazine, dihydrochloride] | 0.034 mg/kg | –
